Source: patent publication US7524861B2, “Process for the preparation of a hydrate of an anthranilic acid derivative” (priority 2002, dated 2009)
Marks after values point to notes of the source that are not given here.

Assays:
[1] = Hygroscopicity study (weight change on storage at 33-95% RH, KF water content); format: physicochemical; settings: for KF moisture result: hygroscopicity sample
Experimental: (§1) The hexahydrate produced in Example 1 was analysed as follows. Four desiccator cabinets were prepared to contain open dishes of the following saturated salt solutions, to achieve the following approximate relative humidities (RH).
(§2) Dehydration of samples was carried out by storing them over silica gel or over P2O5 at reduced pressure (65 mm Hg). All studies were performed at ambient laboratory temperature (15-22° C.).
Pre-equilibrated weighing bottles and lids (stored at 33% RH for a minimum of 24 hours) were weighed on a tared 5-figure analytical balance, and the weight recorded. To these the hydrate was added (approx 2 g), the weight recorded and the difference (the accurate weight of the drug substance) calculated. The weighing bottles, lids and contents were then transferred to the 33% RH cabinet, with the lids removed and placed to the side.
At appropriate times, the lids were replaced and the weight measured. After weighing, the samples were gently agitated and placed back in the 33% RH cabinet, again with the lid removed and placed to one side. This process continued until all % weight changes for all samples were seen to have reached stable end-points. […]. When stable end-points were observed, the samples were stepped up to the next % RH cabinet by transferring the drug to pre-equilibrated weighing bottles, recording their weight as before. Samples were stored progressively at 33% RH, 60% RH, 75% RH and 95% RH.
(§3) Water contents were measured by coulometric KF (Karl Fischer) titration.

[2] = Dehydration/re-hydration study (weight change over desiccants, then 33-95% RH, KF water content); format: physicochemical
Experimental: as §1, §2
During this study, samples were dispensed to pre-equilibrated weighing bottles as in the hygroscopicity study, and were then stored over silica gel without reduced pressure, then over […] under reduced pressure (65 mm Hg) to dehydrate the hydrate. Once a stable weight was achieved over P2O5, samples were re-hydrated by storing them at 33% RH to 95% RH, in parallel with the hygroscopicity study as described above.
as §3

Q: Which “Cumulative % change Hygroscopicity” value ([1]; 33% RH, tabulated time 1147.25 h (actual: minus 1144 h)) does the source give for `COc1cc2c(cc1OC)CN(CCc1ccc(NC(=O)c3cc(OC)c(OC)cc3NC(=O)c3cnc4ccccc4c3)cc1)CC2` [Example 1, Quinoline-3-carboxylic acid (2-{4-[2-(6,7-dimethoxy-3,4-dihydro-1H-isoquinolin-2-yl)-ethyl]-phenylcarbamoyl}-4,5-dimethoxy-phenyl)-amide] here?
A: The value was −0.17* %.

Q: And the “Cumulative % change Hygroscopicity” value ([1]; 33% RH, tabulated time 1150.75 h (actual: minus 1144 h))?
A: The value was −0.22%.

Q: What about the “Cumulative % change Hygroscopicity” value ([1]; 33% RH, tabulated time 1168.00 h (actual: minus 1144 h)) of the same molecule?
A: The value was −0.47%.

Q: And the “Cumulative % change Hygroscopicity” value ([1]; 33% RH, tabulated time 1240.75 h (actual: minus 1144 h))?
A: Its value is −0.37%.

Q: What about the “Cumulative % change Hygroscopicity” value ([1]; 33% RH, tabulated time 1268.50 h (actual: minus 1144 h)) of the same molecule?
A: Its value is −0.42%.

Q: What about the “Cumulative % change Hygroscopicity” value ([1]; 33% RH, tabulated time 1312.50 h (actual: minus 1144 h)) of the same molecule?
A: Its value is −0.49%.

Q: And the “Cumulative % change Hygroscopicity” value ([1]; 33% RH, tabulated time 1431.25 h (actual: minus 1144 h))?
A: The value was −0.63%.

Q: And the “Cumulative % change Hygroscopicity” value ([1]; 33% RH, tabulated time 1502.25 h (actual: minus 1144 h))?
A: Its value is −0.51%.

Q: And the “Cumulative % change Hygroscopicity” value ([1]; 33% RH, tabulated time 1672.50 h (actual: minus 1144 h))?
A: The value was −0.70%.

Q: What about the “Cumulative % change Hygroscopicity” value ([1]; 33% RH, tabulated time 1741.50 h (actual: minus 1144 h)) of the same molecule?
A: Its value is −0.76%.

Q: What about the “hygroscopicity on storage at progressively higher RH values” ([1]; 33% to 95% RH, ambient temperature) of the same molecule?
A: The value was “no evidence of hygroscopicity”.

Q: What about the “Cumulative % change Hygroscopicity” value ([1]; 60% RH, tabulated time 1744.50 h (actual: minus 1144 h)) of the same molecule?
A: Its value is 0.12%.

Q: And the “Cumulative % change Hygroscopicity” value ([1]; 60% RH, tabulated time 1746.50 h (actual: minus 1144 h))?
A: Its value is 0.13%.

Q: And the “Cumulative % change Hygroscopicity” value ([1]; 60% RH, tabulated time 1762.50 h (actual: minus 1144 h))?
A: The value was 0.08%.

Q: What about the “Cumulative % change Hygroscopicity” value ([1]; 60% RH, tabulated time 1835.75 h (actual: minus 1144 h)) of the same molecule?
A: Its value is 0.27%.

Q: And the “Cumulative % change Hygroscopicity” value ([1]; 60% RH, tabulated time 1932.25 h (actual: minus 1144 h))?
A: Its value is 0.37%.

Q: What about the “Cumulative % change Hygroscopicity” value ([1]; 60% RH, tabulated time 2101.50 h (actual: minus 1144 h)) of the same molecule?
A: The value was 0.56%.

Q: And the “Cumulative % change Hygroscopicity” value ([1]; 60% RH, tabulated time 2147.75 h (actual: minus 1144 h))?
A: The value was 0.34%.

Q: What about the “Cumulative % change Hygroscopicity” value ([1]; 60% RH, tabulated time 2273.75 h (actual: minus 1144 h)) of the same molecule?
A: The value was 0.34%.

Q: And the “Cumulative % change Hygroscopicity” value ([1]; 60% RH, tabulated time 2410.25 h (actual: minus 1144 h))?
A: Its value is 0.27%.

Q: And the “Cumulative % change Hygroscopicity” value ([1]; 75% RH, tabulated time 2417.25 h (actual: minus 1144 h))?
A: The value was 0.87%.

Q: What about the “Cumulative % change Hygroscopicity” value ([1]; 75% RH, tabulated time 2434.25 h (actual: minus 1144 h)) of the same molecule?
A: Its value is 0.88%.

Q: What about the “Cumulative % change Hygroscopicity” value ([1]; 75% RH, tabulated time 2441.25 h (actual: minus 1144 h)) of the same molecule?
A: Its value is 0.88%.

Q: What about the “Cumulative % change Hygroscopicity” value ([1]; 75% RH, tabulated time 2482.00 h (actual: minus 1144 h)) of the same molecule?
A: Its value is 0.92%.

Q: What about the “Cumulative % change Hygroscopicity” value ([1]; 75% RH, tabulated time 2577.75 h (actual: minus 1144 h)) of the same molecule?
A: Its value is 1.00%.

Q: What about the “Cumulative % change Hygroscopicity” value ([1]; 75% RH, tabulated time 2609.75 h (actual: minus 1144 h)) of the same molecule?
A: Its value is 0.96%.

Q: What about the “Cumulative % change Hygroscopicity” value ([1]; 75% RH, tabulated time 2681.25 h (actual: minus 1144 h)) of the same molecule?
A: The value was 1.08%.

Q: And the “Cumulative % change Hygroscopicity” value ([1]; 75% RH, tabulated time 2770.25 h (actual: minus 1144 h))?
A: The value was 1.01%.

Q: And the “Cumulative % change Hygroscopicity” value ([1]; 75% RH, tabulated time 2817.75 h (actual: minus 1144 h))?
A: Its value is 1.09%.

Q: And the “Cumulative % change Hygroscopicity” value ([1]; 95% RH, tabulated time 2825.25 h (actual: minus 1144 h))?
A: The value was 1.85%.

Q: And the “Cumulative % change Hygroscopicity” value ([1]; 95% RH, tabulated time 2841.75 h (actual: minus 1144 h))?
A: The value was 2.23%.

Q: And the “Cumulative % change Hygroscopicity” value ([1]; 95% RH, tabulated time 2915.75 h (actual: minus 1144 h))?
A: The value was 2.57%.

Q: What about the “Cumulative % change Hygroscopicity” value ([1]; 95% RH, tabulated time 2937.75 h (actual: minus 1144 h)) of the same molecule?
A: Its value is 2.71%.

Q: And the “Cumulative % change Hygroscopicity” value ([1]; 95% RH, tabulated time 2991.25 h (actual: minus 1144 h))?
A: Its value is 2.82%.

Q: What about the “Cumulative % change Hygroscopicity” value ([1]; 95% RH, tabulated time 3082.25 h (actual: minus 1144 h)) of the same molecule?
A: Its value is 3.28%.

Q: And the “Cumulative % change Hygroscopicity” value ([1]; 95% RH, tabulated time 3130.00 h (actual: minus 1144 h))?
A: Its value is 3.51%.

Q: And the “Cumulative % change Hygroscopicity” value ([1]; 95% RH, tabulated time 3182.25 h (actual: minus 1144 h))?
A: Its value is 3.39%.

Q: What about the “Cumulative % change Hygroscopicity” value ([1]; 95% RH, tabulated time 3252.25 h (actual: minus 1144 h)) of the same molecule?
A: Its value is 3.62%.

Q: What about the “Cumulative % change Hygroscopicity” value ([1]; 95% RH, tabulated time 3350.25 h (actual: minus 1144 h)) of the same molecule?
A: Its value is 3.65%.

Q: What about the “Cumulative % change Hygroscopicity” value ([1]; 95% RH, tabulated time 3422.25 h (actual: minus 1144 h)) of the same molecule?
A: Its value is 3.64%.

Q: And the “Cumulative % change Hygroscopicity” value ([1]; 95% RH, tabulated time 3636.25 h (actual: minus 1144 h))?
A: Its value is 4.12%.

Q: What about the “Cumulative % change Hygroscopicity” value ([1]; 95% RH, tabulated time 4332.75 h (actual: minus 1144 h)) of the same molecule?
A: The value was 4.45%.

Q: And the “weight increase between storage at 33% RH and end of storage at 75% RH” value ([1]; both re-hydrated and untreated samples)?
A: The value was “less than 2 % (absolute)”.

Q: And the KF moisture result ([1]; 95% RH, tabulated time 4332.75 h (end))?
A: The KF moisture result was “(15.35) % w/w”.

Q: And the KF moisture result ([1]; printed in first 33% RH row (start of study))?
A: Its KF moisture result is “(12.45) % w/w”.

Q: What about the “Cumulative % change Dehydration/Rehydration” value ([2]; 60% RH, cumulative time 1744.50 h) of the same molecule?
A: Its value is 0.19%.

Q: What about the “Cumulative % change Dehydration/Rehydration” value ([2]; 60% RH, cumulative time 1746.50 h) of the same molecule?
A: Its value is 0.31%.

Q: What about the “Cumulative % change Dehydration/Rehydration” value ([2]; 60% RH, cumulative time 1762.50 h) of the same molecule?
A: Its value is 0.30%.

Q: And the “Cumulative % change Dehydration/Rehydration” value ([2]; 60% RH, cumulative time 1835.75 h)?
A: Its value is 0.54%.

Q: What about the “Cumulative % change Dehydration/Rehydration” value ([2]; 60% RH, cumulative time 1932.25 h) of the same molecule?
A: Its value is 0.64%.

Q: What about the “Cumulative % change Dehydration/Rehydration” value ([2]; 60% RH, cumulative time 2101.50 h) of the same molecule?
A: Its value is 0.86%.

Q: And the “Cumulative % change Dehydration/Rehydration” value ([2]; 60% RH, cumulative time 2147.75 h)?
A: The value was 0.62%.

Q: And the “Cumulative % change Dehydration/Rehydration” value ([2]; 60% RH, cumulative time 2273.75 h)?
A: Its value is 0.61%.

Q: What about the “Cumulative % change Dehydration/Rehydration” value ([2]; 60% RH, cumulative time 2410.25 h) of the same molecule?
A: The value was 0.51%.

Q: What about the “Cumulative % change Dehydration/Rehydration” value ([2]; 75% RH, cumulative time 2417.25 h) of the same molecule?
A: Its value is 1.18%.

Q: And the “Cumulative % change Dehydration/Rehydration” value ([2]; 75% RH, cumulative time 2434.25 h)?
A: Its value is 1.21%.
